Patent US6593335B1, “Potassium channel openers” (Abbott Laboratories, priority 1997, dated 2003)

Molecular target: potassium channels (Sus scrofa, UniProt F1SR11)
Assay: Functional potassium channel opening activity in isolated Landrace pig bladder strips (field-stimulated twitch)
Conditions: for Landrace Pig Bladder Index: ED50 for P1075 divided by ED50 for the test agonist, averaged over tissues; for Landrace Pig Bladder pD2: negative logarithm of ED50; for Emax: pig; for Emax / Landrace Pig Bladder Efficacy (% P1075): maximal efficacy relative to P1075, field stimulation 0.05Hz, 0.5 milli-seconds at 20 volts
Protocol: The entire bladder was removed and ed into Krebs Ringer bicarbonate solution (composition, mM: NaCl,; dextrose, 1; KCl, 4.7; […] Propranolol (0.004 ed in all of the assays to block […]. The trigonal and dome […]. Strips 3-5 mm wide and 20 mm long were prepared from the cut in a circular fashion. The mucosal layer was removed. One end ationary glass rod and the other to a Grass FT03 transducer at a basal am. Two parallel platinum electrodes were included in the stationary ide field stimulation of 0.05Hz, 0.5 milli-seconds at 20 volts. […] Tissues were allowed to equilibrate for at least 60 minutes and primed with 80 mM KCl. A control concentration response curve (cumulative) was generated for each tissue using the potassium channel opener […] as the control agonist. […] After a 60 minute rinsing period, a concentration response curve (cumulative) was generated for the test agonist in the same fashion as that used for the control agonist […]. The maximal efficacy of each compound (expressed as % relative to […]) is reported. […] J. Physiol. 235, E97 (1980)), and agonist potencies were expressed as pD2 (the negative logarithm). Agonist potencies were also expressed as an index relative to […]. The index was calculated by dividing the ED50 for […] by the ED50 for the test agonist in a given tissue. Each tissue was used for only one test agonist, and the indices obtained from each tissue were averaged to provide an average index of potency.

O=C1CCCC2=C1C(c1ccc(Cl)c([N+](=O)[O-])c1)C1=C(CCS1(=O)=O)N2 (stereo not drawn) [Example 34, 9-(4-chloro-3-nitrophenyl)-2,3,5,6,7,9-hexahydrothieno [3,2-b]quinolin-8(4H)-one, 1,1-dioxide]
Landrace Pig Bladder Index: 0.32
Landrace Pig Bladder pD2: 6.8
Emax: 100%

O=C1CCCC2=C1C(c1cc(Br)c(F)cc1O)C1=C(CCS1(=O)=O)N2 (stereo not drawn) [Example 121, 9-(5-bromo-4-fluoro-2-hydroxyphenyl)-2.35,6,7,9-hexahydrothieno[3.2-b]quinolin-8(4H)-one, 1,1-dioxide]
Landrace Pig Bladder Index: 0.078
Landrace Pig Bladder pD2: 6.2
Emax: 100%

O=C1CCC2=C1C(c1cccc([N+](=O)[O-])c1)C1=C(CCS1(=O)=O)N2 (stereo not drawn) [Example 58, 2,3,4,5,6,8-hexahydro-8-(3-nitrophenyl)-7H-cyclopenta[b]thieno [2.3-e]pyridin-7-one, 1,1-dioxide]
Landrace Pig Bladder Index: 0.026
Landrace Pig Bladder pD2: 5.3
Emax: 94%

O=C1CCCC2=C1C(c1ccc(Cl)c([N+](=O)[O-])c1)C1=C(CCS1(=O)=O)N2 (single isomer, unassigned; (+)) [Example 99, (+)-9-(4-chloro-3-nitrophenyl)-2,3,5,6,7,9-hexahydrothieno[3.2-b]guinolin-8(4H)-one, 1,1-dioxide]
Landrace Pig Bladder Index: 0.18
Landrace Pig Bladder pD2: 6.2
Emax: 100%

O=C1CCCC2=C1C(c1ccc(F)c(Br)c1)C1=C(CCCS1(=O)=O)N2 (stereo not drawn) [Example 4, 10-(3-bromo-4-fluorophenyl)-3,4,6,7,8,10-hexahydro-2H-thiopyrano [3,2-b]quinolin-9(5H)-one, 1,1-dioxide]
Landrace Pig Bladder Index: 0.18
Landrace Pig Bladder pD2: 6.2
Emax: 93%

O=C1CCC2=C1C(c1ccc(F)c(Br)c1)C1=C(CCCS1(=O)=O)N2 (stereo not drawn) [Example 40, 9-(3-bromo-4-fluorophenyl)-3,4,5,6,7,9-hexahydrocyclopenta[b]thiopyrano [2.3-e]pyridin-8(2H)-one, 1,1-dioxide]
Landrace Pig Bladder Index: 0.46
Landrace Pig Bladder pD2: 6.9
Emax: 98%

Cc1ccc(C2C3=C(CCCC3=O)NC3=C2S(=O)(=O)CC3)cc1C#N (single isomer, unassigned) [Example 155, 9-(3-cvano-4-methylphenyl)-2,3 5,6,7,9-hexahydrothieno[3,2-b]guinolin-8(4H)-one, 1,1-dioxide]
Landrace Pig Bladder Index: 0.026
Landrace Pig Bladder pD2: 5.4
Emax: 98%

O=C1CCC2=C1C(c1ccc(Cl)c([N+](=O)[O-])c1)C1=C(CCCS1(=O)=O)N2 (stereo not drawn) [Example 38, 9-(4-chloro-3-nitrophenyl)-3,4,5,6,7,9-hexahydrocyclopenta[b]thiopyrano [2.3-e]pyridin-8(2H)-one, 1,1-dioxide]
Landrace Pig Bladder Index: 0.14
Landrace Pig Bladder pD2: 6.2
Emax: 98%

O=C1CCC2=C1C(c1ccc(Cl)c([N+](=O)[O-])c1)C1=C(CCS1(=O)=O)N2 (single isomer, unassigned) [Example 161]
Landrace Pig Bladder Index: 0.23
Landrace Pig Bladder pD2: 6.3
Emax: 96%

O=C1CCCC2=C1C(c1ccc(Cl)c(C(F)(F)F)c1)C1=C(CCS1(=O)=O)N2 (single isomer, unassigned; (-)) [Example 172, (−)-9-[4-chloro-3-(trifluoromethyl)vhenyl]-2,3,5,6,79-hexahydrothieno[3,2-b]quinolin-8(4H)-one, 1,1-dioxide]
Landrace Pig Bladder Index: 0.12
Landrace Pig Bladder pD2: 6.2
Emax: 100%

O=C1CCCC2=C1C(c1ccc(F)c(C(F)(F)F)c1)C1=C(CCS1(=O)=O)N2 (single isomer, unassigned; (-)) [Example 139]
Landrace Pig Bladder Index: 0.13
Landrace Pig Bladder pD2: 6.0
Emax: 100%

O=C1CCC2=C1C(c1ccc(F)c(Cl)c1)C1=C(CCS1(=O)=O)N2 (stereo not drawn) [Example 61, 8-(3-chloro-4-fluorophenyl)-2,3,4,5,6,8-hexahydro-7H-cyclopenta[b]thieno [2,3-e]pyridin-7-one, 1,1-dioxide]
Landrace Pig Bladder Index: 0.71
Landrace Pig Bladder pD2: 7.1
Emax: 100%

CC1=C(S(C)(=O)=O)C(c2ccc(C)c([N+](=O)[O-])c2)C2=C(CCCC2=O)N1 (stereo not drawn) [Example 23, 4,6,7,8-tetrahydro-2-methyl-4-(4-methyl-3-nitrophenyl)-3-(methylsulfonyl)-5(1H)-quinolinone]
Landrace Pig Bladder Index: 0.0053
Landrace Pig Bladder pD2: 4.4
Emax: 81%

O=C1CCCC2=C1[C@H](c1ccc(F)c(Br)c1)C1=C(CCS1(=O)=O)N2 [Example 84, (−)-(9S)-9-(3-bromo-4-fluorophenyl)-2,3,5,6,7,9-hexahydrothieno [3,2-b]quinolin-8(4H)-one, 1,1-dioxide]
Landrace Pig Bladder Index: 0.69
Landrace Pig Bladder pD2: 6.8
Emax: 100%

O=C1CCCC2=C1C(c1ccc(F)c(Br)c1)C1=C(CCCS1(=O)=O)N2 (single isomer, unassigned; (+)) [Example 93, (+)-I 0-(3-bromo-4-fluorophenyl)-3,4,6,7,8,10-hexahydro-2H-thiopyrano[3 2-b]quinolin-9(5H)-one, 1,1-dioxide]
Landrace Pig Bladder Index: 0.02
Landrace Pig Bladder pD2: 5.2
Emax: 100%

O=C1CCCC2=C1C(c1ccc(Br)s1)C1=C(CCS1(=O)=O)N2 (single isomer, unassigned) [Example 167, 9-(5-bromo-2-thienyl)-2,3,5,6,7,9-hexahydrothieno[3,2-b]quinolin-8(4H)-one, 1,1-dioxide]
Landrace Pig Bladder Index: 0.062
Landrace Pig Bladder pD2: 5.9
Emax: 100%

O=C1CCCC2=C1C(c1cccc([N+](=O)[O-])c1)C1=C(CCCS1(=O)=O)N2 (stereo not drawn) [Example 1, 3,4,6,7,8,10-hexahydro-10-(3-nitrophenyl)-2H-thiopyrano[3,2-b]quinolin-9(5H)-one, 1,1-dioxide]
Landrace Pig Bladder Index: 0.022
Landrace Pig Bladder pD2: 5.5
Emax: 100%

O=C1CCC2=C1C(c1ccc(Cl)c([N+](=O)[O-])c1)C1=C(CCS1(=O)=O)N2 (stereo not drawn) [Example 44, 8-(4-chloro-3-nitrophenyl)-2,3,4,5,6,8-hexahydro-7H-cyclopenta[b]thieno[2,3-e]pyridin-7-one 1,1-dioxide]
Landrace Pig Bladder Index: 0.15
Landrace Pig Bladder pD2: 6.2
Emax: 99%

O=C1CCCC2=C1C(c1ccc(F)c(Cl)c1)C1=C(CCCS1(=O)=O)N2 (stereo not drawn) [Example 3, 10-(3-chloro-4-fluorophenyl)-3,4,6,7,8,10-hexahydro-2H-thiopyrano [3,2-b]quinolin-9(5H)-one, 1,1-dioxide]
Landrace Pig Bladder Index: 0.11
Landrace Pig Bladder pD2: 6.0
Emax: 85%

Cc1ccc(C2C3=C(CCCC3=O)NC3=C2S(=O)(=O)CC3)cc1[N+](=O)[O-] (single isomer, unassigned) [Example 126, 9-(4-methyl-3-nitrophenyl)-2,3 5,6,7,9-hexahydro[3. 2-b]guinolin-8(4H)-one, 1,1-dioxide]
Landrace Pig Bladder Index: 0.20
Landrace Pig Bladder pD2: 6.3
Emax: 99%

O=C1CCCC2=C1C(c1ccc(Cl)c([N+](=O)[O-])c1)C1=C(CCS1(=O)=O)N2 (single isomer, unassigned; (-)) [Example 100, (−)-9-(4-chloro-3-nitrophenyl)-2,3,5,6,7,9-hexahydrothieno[3,2-b]quinolin-8(4H)-one, 1,1-dioxide]
Landrace Pig Bladder Index: 0.17
Landrace Pig Bladder Efficacy (% P1075): 100 % P1075
Landrace Pig Bladder pD2: 6.4

N#Cc1cccc(C2C3=C(CCC3=O)NC3=C2S(=O)(=O)CC3)c1 (single isomer, unassigned; (+)) [Example 164]
Landrace Pig Bladder Index: 0.0071
Landrace Pig Bladder pD2: 5.0
Emax: 94%

O=C1CCCC2=C1C(c1ccc(F)c(Br)c1)C1=C(CCCS1(=O)=O)N2 (single isomer, unassigned; (-)) [Example 94, (−)-10-(3-bromo-4-fluorophenyl)-3,4,6,7,8,10-hexahydro-2H-thiopyrano[3,2-b]quinolin-9(5H)-one 1,1-dioxide]
Landrace Pig Bladder Index: 0.31
Landrace Pig Bladder Efficacy (% P1075): 94 % P1075
Landrace Pig Bladder pD2: 6.4
